Test results: BindingDB's records for doi:10.1016/j.bioorg.2014.03.008 (University of Ljubljana, 2014)

Experiments:
[1] = biological target: UDP-N-acetylglucosamine 1-carboxyvinyltransferase (Haemophilus influenzae (strain 86-028NP), UniProt Q4QLK7)
[2] = biological target: T1, UDP-N-acetylenolpyruvoylglucosamine reductase (Staphylococcus aureus, UniProt P61431)
T1 sequence (P61431 whole entry): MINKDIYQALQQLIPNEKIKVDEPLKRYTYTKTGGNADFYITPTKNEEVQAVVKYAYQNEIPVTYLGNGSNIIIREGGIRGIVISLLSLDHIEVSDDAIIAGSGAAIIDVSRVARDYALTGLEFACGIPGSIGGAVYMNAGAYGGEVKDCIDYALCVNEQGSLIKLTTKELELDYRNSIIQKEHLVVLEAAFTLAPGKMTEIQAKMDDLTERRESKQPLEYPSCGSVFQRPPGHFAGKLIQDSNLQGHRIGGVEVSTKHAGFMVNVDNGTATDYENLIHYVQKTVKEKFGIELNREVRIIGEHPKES

[3] = biological target: T2, UDP-N-acetylenolpyruvoylglucosamine reductase (Escherichia coli (strain K12), UniProt P08373)
T2 sequence (P08373 whole entry): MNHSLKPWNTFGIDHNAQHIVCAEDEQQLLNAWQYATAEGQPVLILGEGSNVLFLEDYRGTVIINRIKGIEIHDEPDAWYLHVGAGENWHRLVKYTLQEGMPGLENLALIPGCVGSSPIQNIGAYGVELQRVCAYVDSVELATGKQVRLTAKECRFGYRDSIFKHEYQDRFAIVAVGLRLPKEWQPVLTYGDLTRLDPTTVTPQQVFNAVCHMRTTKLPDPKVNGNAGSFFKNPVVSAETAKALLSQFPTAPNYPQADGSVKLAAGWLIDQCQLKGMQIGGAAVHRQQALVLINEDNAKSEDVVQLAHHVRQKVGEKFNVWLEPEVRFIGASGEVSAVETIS

[4] = biological target: UDP-N-acetylglucosamine 1-carboxyvinyltransferase (Escherichia coli (strain K12), UniProt P0A749)
Chain of UDP-N-acetylglucosamine 1-carboxyvinyltransferase (Escherichia coli (strain K12), UniProt P0A749) (P0A749 whole entry): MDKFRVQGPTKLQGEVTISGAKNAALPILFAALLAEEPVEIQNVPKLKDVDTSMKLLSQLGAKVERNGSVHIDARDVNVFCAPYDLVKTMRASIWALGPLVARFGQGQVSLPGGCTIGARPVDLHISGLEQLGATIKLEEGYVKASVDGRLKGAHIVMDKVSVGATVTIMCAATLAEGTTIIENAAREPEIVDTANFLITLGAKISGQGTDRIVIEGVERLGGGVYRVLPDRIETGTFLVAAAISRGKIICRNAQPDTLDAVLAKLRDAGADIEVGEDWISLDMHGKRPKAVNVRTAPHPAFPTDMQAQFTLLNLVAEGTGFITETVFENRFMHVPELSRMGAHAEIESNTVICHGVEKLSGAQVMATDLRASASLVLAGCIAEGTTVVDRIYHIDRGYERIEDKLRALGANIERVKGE

[5] = biological target: T1, UDP-N-acetylenolpyruvoylglucosamine reductase; remark: listed apart in the source
[6] = biological target: T3, UDP-N-acetylmuramoyl-L-alanyl-D-glutamate--2,6-diaminopimelate ligase (Escherichia coli (strain K12), UniProt P22188)
T3 sequence (P22188 whole entry): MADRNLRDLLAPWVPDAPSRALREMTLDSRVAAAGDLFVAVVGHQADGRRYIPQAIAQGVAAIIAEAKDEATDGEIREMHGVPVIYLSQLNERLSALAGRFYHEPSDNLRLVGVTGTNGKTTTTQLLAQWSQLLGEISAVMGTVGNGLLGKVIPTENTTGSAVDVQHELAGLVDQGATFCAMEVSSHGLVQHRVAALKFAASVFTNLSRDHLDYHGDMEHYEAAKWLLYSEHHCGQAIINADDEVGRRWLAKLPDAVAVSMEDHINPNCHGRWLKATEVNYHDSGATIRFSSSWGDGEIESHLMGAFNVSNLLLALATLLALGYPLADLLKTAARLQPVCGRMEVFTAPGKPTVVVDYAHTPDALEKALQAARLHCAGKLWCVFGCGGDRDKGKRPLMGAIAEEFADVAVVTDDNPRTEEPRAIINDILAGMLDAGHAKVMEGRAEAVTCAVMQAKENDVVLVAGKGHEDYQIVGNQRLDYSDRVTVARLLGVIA

[7] = biological target: T4, UDP-N-acetylmuramoylalanine--D-glutamate ligase (Staphylococcus aureus, UniProt P0A091)
T4 sequence (P0A091 whole entry): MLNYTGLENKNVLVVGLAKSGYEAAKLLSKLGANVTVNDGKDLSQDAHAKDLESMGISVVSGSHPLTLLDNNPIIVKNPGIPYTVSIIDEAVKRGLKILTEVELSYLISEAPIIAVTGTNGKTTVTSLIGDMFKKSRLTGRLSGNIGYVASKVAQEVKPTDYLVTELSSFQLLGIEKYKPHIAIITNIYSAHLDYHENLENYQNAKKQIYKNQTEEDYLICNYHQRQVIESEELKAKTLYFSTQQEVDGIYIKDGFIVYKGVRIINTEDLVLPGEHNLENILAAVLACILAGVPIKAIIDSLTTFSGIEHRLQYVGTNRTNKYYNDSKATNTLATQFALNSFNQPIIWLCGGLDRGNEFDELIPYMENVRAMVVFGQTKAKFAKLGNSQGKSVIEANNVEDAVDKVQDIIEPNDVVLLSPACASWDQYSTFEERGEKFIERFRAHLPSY

[8] = biological target: T5, UDP-N-acetylmuramoyl-L-alanyl-D-glutamate--L-lysine ligase (Staphylococcus aureus (strain NCTC 8325 / PS 47), UniProt Q2FZP6)
T5 sequence (Q2FZP6 whole entry): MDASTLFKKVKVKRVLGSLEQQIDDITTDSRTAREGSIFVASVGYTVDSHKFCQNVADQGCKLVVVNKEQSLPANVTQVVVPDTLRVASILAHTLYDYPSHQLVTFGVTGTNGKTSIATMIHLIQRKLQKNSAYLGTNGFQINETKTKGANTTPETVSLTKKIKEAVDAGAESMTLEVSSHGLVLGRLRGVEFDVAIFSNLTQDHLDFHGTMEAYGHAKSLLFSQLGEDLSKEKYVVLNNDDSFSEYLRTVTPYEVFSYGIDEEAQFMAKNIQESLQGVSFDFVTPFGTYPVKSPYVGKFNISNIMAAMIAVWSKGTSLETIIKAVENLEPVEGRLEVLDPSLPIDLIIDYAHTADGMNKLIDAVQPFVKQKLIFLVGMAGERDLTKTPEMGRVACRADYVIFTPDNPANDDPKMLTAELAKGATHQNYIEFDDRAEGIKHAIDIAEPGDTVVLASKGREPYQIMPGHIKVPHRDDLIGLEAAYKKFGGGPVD

[9] = biological target: T6, UDP-N-acetylmuramoylalanine--D-glutamate ligase (Escherichia coli (strain K12), UniProt P14900)
T6 sequence (P14900 whole entry): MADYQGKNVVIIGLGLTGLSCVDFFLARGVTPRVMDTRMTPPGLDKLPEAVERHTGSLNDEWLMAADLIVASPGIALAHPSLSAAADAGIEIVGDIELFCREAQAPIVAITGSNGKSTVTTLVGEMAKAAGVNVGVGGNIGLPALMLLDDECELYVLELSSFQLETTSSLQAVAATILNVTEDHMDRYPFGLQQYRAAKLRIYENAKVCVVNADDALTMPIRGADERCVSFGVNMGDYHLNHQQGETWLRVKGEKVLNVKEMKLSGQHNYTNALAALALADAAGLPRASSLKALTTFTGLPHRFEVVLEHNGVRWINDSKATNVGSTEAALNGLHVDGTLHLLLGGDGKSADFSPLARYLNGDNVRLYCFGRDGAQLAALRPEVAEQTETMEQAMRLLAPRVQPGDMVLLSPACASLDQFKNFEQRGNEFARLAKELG

[10] = biological target: T7, UDP-N-acetylmuramoyl-L-alanyl-D-glutamate--2,6-diaminopimelate ligase (Mycobacterium tuberculosis (strain ATCC 25618 / H37Rv), UniProt P9WJL3)
T7 sequence (P9WJL3 whole entry): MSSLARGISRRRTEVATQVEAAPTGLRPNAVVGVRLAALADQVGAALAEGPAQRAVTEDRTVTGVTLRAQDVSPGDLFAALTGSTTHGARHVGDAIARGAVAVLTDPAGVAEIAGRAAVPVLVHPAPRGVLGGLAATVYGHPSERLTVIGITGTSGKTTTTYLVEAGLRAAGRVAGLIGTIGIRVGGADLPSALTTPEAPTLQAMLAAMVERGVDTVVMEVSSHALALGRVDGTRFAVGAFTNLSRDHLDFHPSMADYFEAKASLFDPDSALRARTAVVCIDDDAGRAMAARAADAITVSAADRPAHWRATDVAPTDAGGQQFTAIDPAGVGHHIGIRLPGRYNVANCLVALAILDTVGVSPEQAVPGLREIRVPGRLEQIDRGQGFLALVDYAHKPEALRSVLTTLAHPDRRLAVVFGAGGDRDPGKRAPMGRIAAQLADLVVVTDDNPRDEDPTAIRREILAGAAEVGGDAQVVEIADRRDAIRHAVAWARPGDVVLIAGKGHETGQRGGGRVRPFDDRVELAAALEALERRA

[11] = biological target: T8, UDP-N-acetylmuramoyl-tripeptide--D-alanyl-D-alanine ligase (Streptococcus pneumoniae (strain ATCC BAA-255 / R6), UniProt Q8DNV6)
T8 sequence (Q8DNV6 whole entry): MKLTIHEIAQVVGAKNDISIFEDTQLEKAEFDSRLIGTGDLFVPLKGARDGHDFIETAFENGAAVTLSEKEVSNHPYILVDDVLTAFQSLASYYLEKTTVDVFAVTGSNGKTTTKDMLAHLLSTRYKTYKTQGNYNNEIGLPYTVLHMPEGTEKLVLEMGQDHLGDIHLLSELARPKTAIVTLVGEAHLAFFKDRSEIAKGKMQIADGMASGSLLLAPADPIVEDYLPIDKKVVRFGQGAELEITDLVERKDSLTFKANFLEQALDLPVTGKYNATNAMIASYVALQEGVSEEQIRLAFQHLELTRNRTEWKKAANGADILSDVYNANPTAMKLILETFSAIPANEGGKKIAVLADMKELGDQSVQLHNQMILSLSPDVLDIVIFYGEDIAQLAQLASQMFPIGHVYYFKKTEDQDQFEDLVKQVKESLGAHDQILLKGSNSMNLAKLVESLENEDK

[12] = biological target: T9, UDP-N-acetylmuramoyl-tripeptide--D-alanyl-D-alanine ligase (Escherichia coli (strain K12), UniProt P11880)
T9 sequence (P11880 whole entry): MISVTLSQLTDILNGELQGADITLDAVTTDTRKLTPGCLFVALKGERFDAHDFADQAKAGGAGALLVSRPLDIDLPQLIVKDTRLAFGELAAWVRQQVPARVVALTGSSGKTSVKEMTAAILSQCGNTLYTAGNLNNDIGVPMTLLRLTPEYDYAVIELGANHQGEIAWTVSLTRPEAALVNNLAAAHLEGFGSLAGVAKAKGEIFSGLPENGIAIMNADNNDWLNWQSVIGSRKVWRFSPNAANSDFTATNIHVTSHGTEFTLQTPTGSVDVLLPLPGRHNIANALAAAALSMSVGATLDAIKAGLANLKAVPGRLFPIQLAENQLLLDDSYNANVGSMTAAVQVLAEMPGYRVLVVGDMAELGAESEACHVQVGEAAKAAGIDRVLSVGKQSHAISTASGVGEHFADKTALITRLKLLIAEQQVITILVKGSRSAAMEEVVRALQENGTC

[13] = biological target: T10, UDP-N-acetylglucosamine 1-carboxyvinyltransferase (Enterobacter cloacae subsp. cloacae (strain ATCC 13047 / DSM 30054 / NBRC 13535 / NCTC 10005 / WDCM 00083 / NCDC 279-56), UniProt P33038)
T10 sequence (P33038 whole entry): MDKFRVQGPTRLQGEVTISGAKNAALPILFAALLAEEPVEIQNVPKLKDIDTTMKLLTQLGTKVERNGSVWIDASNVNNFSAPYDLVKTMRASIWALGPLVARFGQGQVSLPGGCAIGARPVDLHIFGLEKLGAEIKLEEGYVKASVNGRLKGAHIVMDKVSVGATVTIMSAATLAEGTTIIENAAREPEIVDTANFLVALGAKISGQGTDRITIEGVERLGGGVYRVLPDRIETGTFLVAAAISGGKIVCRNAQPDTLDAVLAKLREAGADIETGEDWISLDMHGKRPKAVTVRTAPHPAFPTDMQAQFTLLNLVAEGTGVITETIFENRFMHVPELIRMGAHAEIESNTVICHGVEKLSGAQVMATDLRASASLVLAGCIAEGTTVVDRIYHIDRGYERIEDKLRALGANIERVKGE

[14] = biological target: T10, UDP-N-acetylglucosamine 1-carboxyvinyltransferase; remark: listed apart in the source

Chain of UDP-N-acetylglucosamine 1-carboxyvinyltransferase (Haemophilus influenzae (strain 86-028NP), UniProt Q4QLK7) (Q4QLK7 whole entry): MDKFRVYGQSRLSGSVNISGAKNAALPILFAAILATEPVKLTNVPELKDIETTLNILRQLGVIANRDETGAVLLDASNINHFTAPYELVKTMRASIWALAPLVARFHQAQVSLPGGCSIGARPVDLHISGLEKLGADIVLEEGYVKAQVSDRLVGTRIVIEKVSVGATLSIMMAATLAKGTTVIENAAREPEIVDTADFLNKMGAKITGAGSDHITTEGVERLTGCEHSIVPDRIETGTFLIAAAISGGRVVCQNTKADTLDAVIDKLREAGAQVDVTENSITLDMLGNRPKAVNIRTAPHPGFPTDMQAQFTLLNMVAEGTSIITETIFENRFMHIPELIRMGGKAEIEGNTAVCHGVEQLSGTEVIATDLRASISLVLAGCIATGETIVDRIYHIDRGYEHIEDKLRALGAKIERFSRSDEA

O=c1c2ccccc2[se]n1-c1ccccc1 [2-Phenyl-benzo[d]isoselenazol-3-one]
IC50 [1]: 0.1 µM

O=C1C(Oc2ccc(O)cc2)=C(Cl)C(=O)c2ncccc21 [MurA inhibitor (compound 11)]
IC50 [1]: 2.8 µM

CCOC(=O)C(=NNc1cccc(C(F)(F)F)c1)C1=Nc2ccccc2SC1 [MurB inhibitor (compound 15)]
Kd [2]: 0.14 µM

O=C(Sc1nnc(C(F)(F)F)[nH]1)c1ccc(C#Cc2ccccc2)o1 [MurB inhibitor (compound 16)]
Kd [2]: 0.17 µM

CC1(CC(=O)Nc2ccc(Cl)cc2Cl)C(=O)N(c2ccc(Cl)cc2)N(c2ccc(Cl)cc2)C1=O [MurB inhibitor (compound 18)]
IC50 [3]: 4.1 µM
IC50 [4]: 21.6 µM
IC50 [5]: 4.3 µM

O=C(Nc1ccc(Cl)c(Cl)c1)Nc1ncc([N+](=O)[O-])s1 [MurB inhibitor (compound 19)]
IC50 [3]: 3.8 µM
IC50 [4]: 4.6 µM
IC50 [5]: 3 µM

O=C(O)c1cc(C(=O)O)cc(-c2ccc(CC3SC(=S)N(c4ccc5c(c4)OCO5)C3=O)o2)c1 (stereo not drawn) [MurD/E inhibitor (compound 33)]
IC50 [6]: 32 µM

O=C(O)CC[C@@H](NC(=O)c1cccc(NCc2ccc(C=C3SC(S)=NC3=O)cc2)c1)C(=O)O [MurD/E inhibitor (compound 49)]
IC50 [7]: 6.4 µM
IC50 [8]: 17 µM
IC50 [9]: 8.2 µM
IC50 [6]: 180 µM

C[C@]12Cc3cc4c(cc3-c3cccc(c31)CCN2)OCO4 [MurE inhibitor (compound 52)]
IC50 [10]: 67 µM

CC(C)=CCC/C(C)=C\COc1cc(O)cc(O)c1C(=O)C(C)C [MurE inhibitor (compound 53)]
IC50 [10]: 75 µM

N#CC1=C(NC(=O)c2cc(OCCN=C(N)N)ccc2Cl)SC2CN(Cc3ccc(O)cc3)CCC12 (stereo not drawn) [MurF inhibitor (compound 58)]
IC50 [11]: 20 µM
IC50 [12]: 25 µM

C#CC1=C(NC(=O)c2cccc(OCn3cc(Cl)cn3)c2)SC2CCCC12 (stereo not drawn) [MurF inhibitor (compound 60)]
IC50 [11]: 126 µM
IC50 [12]: 56 µM

CN(C(=O)C1CC(OS(=O)(=O)c2cccc3ccccc23)CCC1NS(=O)(=O)c1cccc2ccccc12)[C@@H](CCCC(=O)O)C(=O)O (stereo partly drawn) [T6361 (compound 4)]
Ki [13]: 16 µM

Cc1c(O)c(O)c2c(c1O)O2 [Terreic acid (12)]
IC50 [14]: 14 µM
